Consider 1 compound from article PMC5218480 (PLoS ONE, 2017).

This assay concerns MV-4-11 cells. The experiment in a line: Gene expression microarray analysis (Affymetrix PrimeView) and GSEA. The class given is cell-based, human. Also on record: RFU PODN (11730768_x_at) / Fold change /veh PODN (11730768_x_at) / RFU LINC00158 (11744669_a_at) / Fold change /veh LINC00158 (11744669_a_at) / RFU DUSP10 (11751237_a_at) / Fold change /veh DUSP10 (11751237_a_at) / RFU ID3 (11757404_x_at) / Fold change /veh ID3 (11757404_x_at) / RFU PLEKHG5 (11737974_s_at) / Fold change /veh PLEKHG5 (11737974_s_at) / RFU LRRC4B (11730491_at) / Fold change /veh LRRC4B (11730491_at) / RFU GIMAP4 (11747438_a_at) / Fold change /veh GIMAP4 (11747438_a_at) / RFU KRT8 (11758183_x_at) / Fold change /veh KRT8 (11758183_x_at) / RFU CNN1 (11734310_a_at) / Fold change /veh CNN1 (11734310_a_at) / RFU VPS37D (11726825_at) / Fold change /veh VPS37D (11726825_at) / RFU C10orf10 (11716522_x_at) / Fold change /veh C10orf10 (11716522_x_at) / RFU KIR2DL2 /// KIR2DL4 /// KIR2DL5A /// KIR2DL5B /// KIR2DS1 /// KIR2DS2 /// KIR2DS3 /// KIR2DS4 /// KIR3DL3 /// KIR3DL3 /// KIR3DS1 (11738374_at) / Fold change /veh KIR2DL2 /// KIR2DL4 /// KIR2DL5A /// KIR2DL5B /// KIR2DS1 /// KIR2DS2 /// KIR2DS3 /// KIR2DS4 /// KIR3DL3 /// KIR3DL3 /// KIR3DS1 (11738374_at) / RFU C1QL1 (11718748_at) / Fold change /veh C1QL1 (11718748_at) / RFU TMPRSS4 (11747572_a_at) / Fold change /veh TMPRSS4 (11747572_a_at) / RFU HAMP (11756126_x_at) / Fold change /veh HAMP (11756126_x_at) / RFU RNFT2 (11725882_a_at) / Fold change /veh RNFT2 (11725882_a_at) / RFU NR4A2 (11747474_a_at) / Fold change /veh NR4A2 (11747474_a_at) / RFU ABCC12 (11746883_a_at) / Fold change /veh ABCC12 (11746883_a_at) / RFU TMEM136 (11760407_x_at) / Fold change /veh TMEM136 (11760407_x_at) / RFU CLDN22 /// WWC2 (11732394_at) / Fold change /veh CLDN22 /// WWC2 (11732394_at) / RFU HLA-DPB1 (11760878_x_at) / Fold change /veh HLA-DPB1 (11760878_x_at) / RFU SPINT1 (11716480_a_at) / Fold change /veh SPINT1 (11716480_a_at) / RFU GAP43 (11754022_s_at) / Fold change /veh GAP43 (11754022_s_at) / RFU A4GNT (11735810_at) / Fold change /veh A4GNT (11735810_at) / RFU PRB3 (11715151_x_at) / Fold change /veh PRB3 (11715151_x_at) / RFU TUBB4B (11761932_at) / Fold change /veh TUBB4B (11761932_at) / RFU CAPN14 (11732068_a_at) / Fold change /veh CAPN14 (11732068_a_at) / RFU TMCC2 (11721928_a_at) / Fold change /veh TMCC2 (11721928_a_at) / RFU IRGQ (11745062_a_at) / Fold change /veh IRGQ (11745062_a_at) / RFU FAM174B (11720279_a_at) / Fold change /veh FAM174B (11720279_a_at) / RFU TMPRSS4 (11748680_a_at) / Fold change /veh TMPRSS4 (11748680_a_at) / RFU FAM212B (11763350_a_at) / Fold change /veh FAM212B (11763350_a_at) / RFU PLEKHG5 (11743358_a_at) / Fold change /veh PLEKHG5 (11743358_a_at) / RFU ZSCAN30 (11745921_a_at) / Fold change /veh ZSCAN30 (11745921_a_at) / RFU CMKLR1 (11741424_a_at) / Fold change /veh CMKLR1 (11741424_a_at) / RFU LOC101060620 /// MAPK8IP1 (11723275_at) / Fold change /veh LOC101060620 /// MAPK8IP1 (11723275_at) / RFU SPTSSB (11747773_x_at) / Fold change /veh SPTSSB (11747773_x_at) / RFU PRSS12 (11739890_at) / Fold change /veh PRSS12 (11739890_at) / RFU BIN1 (11741810_x_at) / Fold change /veh BIN1 (11741810_x_at) / RFU WNT11 (11732464_a_at) / Fold change /veh WNT11 (11732464_a_at) / RFU C10orf10 (11716521_a_at) / Fold change /veh C10orf10 (11716521_a_at) / RFU C5orf56 (11738089_at) / Fold change /veh C5orf56 (11738089_at) / RFU CYB561 (11721691_x_at) / Fold change /veh CYB561 (11721691_x_at) / RFU ANKRD19P (11752326_a_at) / Fold change /veh ANKRD19P (11752326_a_at) / RFU OR2T12 /// OR2T33 /// OR2T8 (11738714_s_at) / Fold change /veh OR2T12 /// OR2T33 /// OR2T8 (11738714_s_at) / RFU VCAN (11748164_a_at) / Fold change /veh VCAN (11748164_a_at) / RFU JSRP1 (11732532_at) / Fold change /veh JSRP1 (11732532_at) / RFU KRTAP10-11 (11738290_x_at) / Fold change /veh KRTAP10-11 (11738290_x_at) / RFU MYO3A (11730013_a_at) / Fold change /veh MYO3A (11730013_a_at) / RFU EBF3 (11725865_a_at) / Fold change /veh EBF3 (11725865_a_at) / RFU CAMK2N1 (11719241_x_at) / Fold change /veh CAMK2N1 (11719241_x_at) / RFU C5orf56 (11738088_a_at) / Fold change /veh C5orf56 (11738088_a_at) / RFU OLFML3 (11715873_a_at) / Fold change /veh OLFML3 (11715873_a_at) / RFU LOC100653217 /// NTM (11731650_a_at) / Fold change /veh LOC100653217 /// NTM (11731650_a_at) / RFU MAPK11 (11762145_a_at) / Fold change /veh MAPK11 (11762145_a_at) / RFU FIZ1 (11724087_x_at) / Fold change /veh FIZ1 (11724087_x_at) / RFU OASL (11726364_x_at) / Fold change /veh OASL (11726364_x_at) / RFU SOX15 (11748057_x_at) / Fold change /veh SOX15 (11748057_x_at) / RFU CD79A (11719716_a_at) / Fold change /veh CD79A (11719716_a_at) / RFU HIST1H1D (11736915_at) / Fold change /veh HIST1H1D (11736915_at) / RFU CASKIN2 (11723855_a_at) / Fold change /veh CASKIN2 (11723855_a_at) / RFU LOC730098 (11760151_x_at) / Fold change /veh LOC730098 (11760151_x_at) / RFU OR4N2 (11742367_at) / Fold change /veh OR4N2 (11742367_at) / RFU PRRT2 (11749266_a_at) / Fold change /veh PRRT2 (11749266_a_at) / RFU SNX32 (11753110_a_at) / Fold change /veh SNX32 (11753110_a_at) / RFU CDHR5 (11726645_a_at) / Fold change /veh CDHR5 (11726645_a_at) / RFU RCAN1 (11760418_a_at) / Fold change /veh RCAN1 (11760418_a_at) / RFU FAM167A (11723789_a_at) / Fold change /veh FAM167A (11723789_a_at) / RFU FAM26E (11764081_at) / Fold change /veh FAM26E (11764081_at) / RFU ISYNA1 (11749810_s_at) / Fold change /veh ISYNA1 (11749810_s_at) / RFU ACY1 (11761880_at) / Fold change /veh ACY1 (11761880_at) / RFU 11764098_at / Fold change /veh 11764098_at / RFU SAMD14 (11745864_x_at) / Fold change /veh SAMD14 (11745864_x_at) / RFU NPB (11741838_a_at) / Fold change /veh NPB (11741838_a_at) / RFU TMPRSS6 (11731388_a_at) / Fold change /veh TMPRSS6 (11731388_a_at) / RFU KRTAP10-2 (11738614_at) / Fold change /veh KRTAP10-2 (11738614_at) / RFU ARHGAP8 /// PRR5-ARHGAP8 (11727945_x_at) / Fold change /veh ARHGAP8 /// PRR5-ARHGAP8 (11727945_x_at) / RFU KRTAP5-7 /// NADSYN1 (11734609_at) / Fold change /veh KRTAP5-7 /// NADSYN1 (11734609_at) / RFU RASL12 (11751679_a_at) / Fold change /veh RASL12 (11751679_a_at) / RFU CDKN2B (11736163_a_at) / Fold change /veh CDKN2B (11736163_a_at) / RFU PRF1 (11729649_at) / Fold change /veh PRF1 (11729649_at) / RFU, ZNF638 /// ZNF638-IT1 / Fold change vs veh, ZNF638 /// ZNF638-IT1 / RFU, PANK3 / Fold change vs veh, PANK3 / RFU, SH3YL1 / Fold change vs veh, SH3YL1 / RFU, ZEB2 / Fold change vs veh, ZEB2 / RFU, NRIP1 / Fold change vs veh, NRIP1 / RFU, PTTG1IP / Fold change vs veh, PTTG1IP / RFU, CAPN2 / Fold change vs veh, CAPN2 / RFU, MED14 / Fold change vs veh, MED14 / RFU, SNORA58 / Fold change vs veh, SNORA58 / RFU, C1orf63 / Fold change vs veh, C1orf63 / RFU, LRRFIP1 / Fold change vs veh, LRRFIP1 / RFU, NDUFAF7 / Fold change vs veh, NDUFAF7 / RFU, SLC12A2 / Fold change vs veh, SLC12A2 / RFU, IBTK / Fold change vs veh, IBTK / RFU, ESF1 / Fold change vs veh, ESF1 / Fold change vs veh, TMEM50B / RFU, TAOK1 / Fold change vs veh, TAOK1 / RFU, ACBD3 / Fold change vs veh, ACBD3 / RFU, TMA16 / Fold change vs veh, TMA16 / RFU, RWDD3 / Fold change vs veh, RWDD3 / RFU, BCAT1 / Fold change vs veh, BCAT1 / RFU, EDEM3 / Fold change vs veh, EDEM3 / RFU, TMEM33 / Fold change vs veh, TMEM33 / RFU, WDR75 / Fold change vs veh, WDR75 / RFU, AHCTF1 / Fold change vs veh, AHCTF1 / RFU, TFRC / Fold change vs veh, TFRC / RFU, ZDHHC17 / Fold change vs veh, ZDHHC17 / RFU, NOM1 / Fold change vs veh, NOM1 / RFU, ARL8B / Fold change vs veh, ARL8B / RFU, ZBTB11 / Fold change vs veh, ZBTB11 / RFU, TAMM41 / Fold change vs veh, TAMM41 / RFU, KIAA1704 /// LOC100996395 / Fold change vs veh, KIAA1704 /// LOC100996395 / RFU, ING1 / Fold change vs veh, ING1 / RFU, TRMT61B / Fold change vs veh, TRMT61B / RFU, FUBP3 / Fold change vs veh, FUBP3 / RFU, TP53 / Fold change vs veh, TP53 / RFU, TNKS2 / Fold change vs veh, TNKS2 / RFU, ZFP14 / Fold change vs veh, ZFP14 / RFU, ACTR2 / Fold change vs veh, ACTR2 / RFU, PPP3R1 / Fold change vs veh, PPP3R1 / RFU, PIK3R1 / Fold change vs veh, PIK3R1 / RFU, HNRNPA1 / Fold change vs veh, HNRNPA1 / RFU, RNF170 / Fold change vs veh, RNF170 / RFU, ZNF28 / Fold change vs veh, ZNF28 / RFU, RNGTT / Fold change vs veh, RNGTT / RFU, OGT / Fold change vs veh, OGT / RFU, BRD1 / Fold change vs veh, BRD1 / RFU, MARS / Fold change vs veh, MARS / RFU, ZNF655 / Fold change vs veh, ZNF655 / RFU, FAHD1 / Fold change vs veh, FAHD1 / RFU, BDP1 / Fold change vs veh, BDP1 / RFU, LRRCC1 / Fold change vs veh, LRRCC1 / RFU, ARID1A / Fold change vs veh, ARID1A / RFU, ZNF146 / Fold change vs veh, ZNF146 / RFU, ZNF330 / Fold change vs veh, ZNF330 / RFU, GPN3 / Fold change vs veh, GPN3 / RFU, C9orf123 / Fold change vs veh, C9orf123 / RFU, N4BP2L2 / Fold change vs veh, N4BP2L2 / RFU, ARFIP1 / Fold change vs veh, ARFIP1 / RFU, FAM179B / Fold change vs veh, FAM179B / RFU, BCL10 / Fold change vs veh, BCL10 / RFU, UHRF1BP1L / Fold change vs veh, UHRF1BP1L / RFU, BET1 / Fold change vs veh, BET1 / RFU, CNOT2 / Fold change vs veh, CNOT2 / RFU, ZNF268 / Fold change vs veh, ZNF268 / Fold change vs veh, ZNF507 / RFU, DGCR2 / Fold change vs veh, DGCR2 / RFU, WDSUB1 / Fold change vs veh, WDSUB1 / Fold change vs veh, HSP90B1 /// MIR3652 / RFU, ADSS / Fold change vs veh, ADSS / RFU, GK / Fold change vs veh, GK / RFU, ZNF148 / Fold change vs veh, ZNF148 / RFU, TAF9 / Fold change vs veh, TAF9 / RFU, SLC1A5 / Fold change vs veh, SLC1A5 / RFU, SLMO2 / Fold change vs veh, SLMO2 / RFU, ABCC4 / Fold change vs veh, ABCC4 / RFU, LOC101060439 /// RAP1B / Fold change vs veh, LOC101060439 /// RAP1B / RFU, RFX7 / Fold change vs veh, RFX7 / RFU, GTPBP10 / Fold change vs veh, GTPBP10 / RFU, CNEP1R1 / Fold change vs veh, CNEP1R1 / RFU, BIVM-ERCC5 /// ERCC5 / Fold change vs veh, BIVM-ERCC5 /// ERCC5 / RFU, ILF3 / Fold change vs veh, ILF3 / RFU 11762660_at / Fold change /veh 11762660_at / RFU VCAN (11757783_s_at) / Fold change /veh VCAN (11757783_s_at) / RFU DDX43 (11728927_at) / Fold change /veh DDX43 (11728927_at) / RFU KRT8 (11758188_x_at) / Fold change /veh KRT8 (11758188_x_at) / RFU NKD1 (11759106_at) / Fold change /veh NKD1 (11759106_at) / RFU SRD5A1 (11742802_a_at) / Fold change /veh SRD5A1 (11742802_a_at) / RFU TPSAB1 /// TPSB2 (11721975_s_at) / Fold change /veh TPSAB1 /// TPSB2 (11721975_s_at) / RFU GSTM3 (11746129_a_at) / Fold change /veh GSTM3 (11746129_a_at) / RFU IL23R (11737362_x_at) / Fold change /veh IL23R (11737362_x_at) / RFU TMEM51 (11727254_a_at) / Fold change /veh TMEM51 (11727254_a_at) / RFU PIWIL2 (11732686_x_at) / Fold change /veh PIWIL2 (11732686_x_at) / RFU ORM1 (11744905_x_at) / Fold change /veh ORM1 (11744905_x_at) / RFU CCDC152 (11743942_at) / Fold change /veh CCDC152 (11743942_at) / RFU ECM1 (11717891_a_at) / Fold change /veh ECM1 (11717891_a_at) / RFU IL23R (11748794_a_at) / Fold change /veh IL23R (11748794_a_at) / RFU TNFAIP8L3 (11732012_x_at) / Fold change /veh TNFAIP8L3 (11732012_x_at) / RFU MBOAT4 (11741988_at) / Fold change /veh MBOAT4 (11741988_at) / RFU 11764193_at / Fold change /veh 11764193_at / RFU TMEM53 (11763286_at) / Fold change /veh TMEM53 (11763286_at) / RFU MAGEB2 (11727129_at) / Fold change /veh MAGEB2 (11727129_at) / RFU TMEM200A (11744735_a_at) / Fold change /veh TMEM200A (11744735_a_at) / RFU CCDC152 (11751479_a_at) / Fold change /veh CCDC152 (11751479_a_at) / RFU FAM211A (11726209_a_at) / Fold change /veh FAM211A (11726209_a_at) / RFU RGS16 (11746705_a_at) / Fold change /veh RGS16 (11746705_a_at) / RFU VCAN (11755009_s_at) / Fold change /veh VCAN (11755009_s_at) / RFU RHOB (11743442_s_at) / Fold change /veh RHOB (11743442_s_at) / RFU RGS16 (11720943_a_at) / Fold change /veh RGS16 (11720943_a_at) / RFU RGS16 (11720944_at) / Fold change /veh RGS16 (11720944_at) / RFU, VPS4B / Fold change vs veh, VPS4B / RFU, CREB1 / Fold change vs veh, CREB1 / RFU, DNAJC13 / Fold change vs veh, DNAJC13 / RFU, GNAQ / Fold change vs veh, GNAQ / RFU, CDK5R1 / Fold change vs veh, CDK5R1 / RFU, ZRANB3 / Fold change vs veh, ZRANB3 / RFU, CUL4A / Fold change vs veh, CUL4A / RFU, CCNY / Fold change vs veh, CCNY / RFU, UFL1 / Fold change vs veh, UFL1 / RFU, COG3 / Fold change vs veh, COG3 / RFU, DIAPH2 / Fold change vs veh, DIAPH2 / RFU, SKA2 / Fold change vs veh, SKA2 / RFU, AFF3 / Fold change vs veh, AFF3 / RFU, LMF1 / Fold change vs veh, LMF1 / RFU, IPO11 / Fold change vs veh, IPO11 / RFU, DFFB / Fold change vs veh, DFFB / RFU, FOXP1 / Fold change vs veh, FOXP1 / RFU, CARD8 / Fold change vs veh, CARD8 / RFU, STRN3 / Fold change vs veh, STRN3 / RFU, ADK / Fold change vs veh, ADK / RFU, RASSF2 / Fold change vs veh, RASSF2 / RFU, WIPF1 / Fold change vs veh, WIPF1 / RFU, LARP1B / Fold change vs veh, LARP1B / RFU, RASA1 / Fold change vs veh, RASA1 / RFU, RB1 / Fold change vs veh, RB1 / RFU, PPFIA1 / Fold change vs veh, PPFIA1 / RFU, MAT2A / Fold change vs veh, MAT2A / RFU, CCT5 / Fold change vs veh, CCT5 / RFU, WDR92 / Fold change vs veh, WDR92 / RFU, CUX1 / Fold change vs veh, CUX1 / RFU, TTC7A / Fold change vs veh, TTC7A / RFU, TMEM135 / Fold change vs veh, TMEM135 / RFU, DEPTOR / Fold change vs veh, DEPTOR / RFU, CPM / Fold change vs veh, CPM / RFU, DNAJB6 / Fold change vs veh, DNAJB6 / RFU, CACNA2D3 / Fold change vs veh, CACNA2D3 / RFU, DTX4 / Fold change vs veh, DTX4 / RFU, TFCP2 / Fold change vs veh, TFCP2 / RFU, GMCL1 /// GMCL1P1 / Fold change vs veh, GMCL1 /// GMCL1P1 / RFU, AEBP2 / Fold change vs veh, AEBP2 / RFU, SNHG1 /// SNORD22 /// SNORD25 /// SNORD26 /// SNORD27 /// SNORD28 /// SNORD29 /// SNORD31 / Fold change vs veh, SNHG1 /// SNORD22 /// SNORD25 /// SNORD26 /// SNORD27 /// SNORD28 /// SNORD29 /// SNORD31 / Fold change (Aza/veh), C12orf56 (ProbeSet 11735607_a_at) / Fold change (ACY-1035/veh), C12orf56 (ProbeSet 11735607_a_at) / Fold change (Aza/veh), FGFR1OP (ProbeSet 11751329_s_at) / Fold change (ACY-1035/veh), FGFR1OP (ProbeSet 11751329_s_at) / Fold change (Aza/veh), VPS36 (ProbeSet 11739960_a_at) / Fold change (ACY-1035/veh), VPS36 (ProbeSet 11739960_a_at) / RFU SYPL1 (11715823_x_at) / Fold change /veh SYPL1 (11715823_x_at) / RFU IGFBP7 (11715501_s_at) / Fold change /veh IGFBP7 (11715501_s_at) / RFU REEP3 (11722064_at) / Fold change /veh REEP3 (11722064_at) / RFU IGLL1 (11728026_x_at) / Fold change /veh IGLL1 (11728026_x_at): dose or concentration left out as unconfirmed. Particulars: ProbeSet 11723141_at; LIST B.

As for `Nc1ccc(-c2cccs2)cc1NC(=O)c1ccc2c(c1)cc(C1CC1)n2CCN1CCOCC1` [ACY-1035], the “RFU, ZBTB11” value was found to be 113.11 RFU.
